Reference: publication PMC6407587, “Inhibition potential of phenolic constituents from the aerial parts of Tetrastigma hemsleyanum against soluble epoxide hydrolase and nitric oxide synthase” (Journal of Enzyme Inhibition and Medicinal Chemistry, 2019)

How the values were obtained:
sEH = molecular target: T1, sEH (Homo sapiens, UniProt P34913); assay: sEH inhibitory activity, fluorescence assay with PHOME substrate; type: biochemical; conditions: for inhibition at 100 µM: 100 µM compound, tested three times; for IC50: PHOME substrate, dose-dependent response curve
T1 sequence (P34913 1-555): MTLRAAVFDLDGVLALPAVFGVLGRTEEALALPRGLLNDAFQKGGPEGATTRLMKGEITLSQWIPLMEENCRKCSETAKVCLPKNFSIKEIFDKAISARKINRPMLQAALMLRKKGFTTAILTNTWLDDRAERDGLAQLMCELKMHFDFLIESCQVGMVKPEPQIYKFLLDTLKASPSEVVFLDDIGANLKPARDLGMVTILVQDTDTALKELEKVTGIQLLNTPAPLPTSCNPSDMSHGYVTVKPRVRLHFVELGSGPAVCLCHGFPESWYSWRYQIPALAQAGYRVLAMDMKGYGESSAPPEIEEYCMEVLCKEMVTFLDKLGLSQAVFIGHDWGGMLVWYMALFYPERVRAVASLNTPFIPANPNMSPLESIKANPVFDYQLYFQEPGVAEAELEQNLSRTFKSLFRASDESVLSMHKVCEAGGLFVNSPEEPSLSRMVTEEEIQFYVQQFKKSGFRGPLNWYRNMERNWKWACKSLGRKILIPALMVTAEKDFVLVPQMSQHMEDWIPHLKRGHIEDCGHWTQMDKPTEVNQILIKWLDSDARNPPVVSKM

[1] = system: LPS-induced NO production in macrophage RAW 264.7 cells (iNOS); assay: Inhibition of LPS-induced NO production in RAW 264.7 macrophages (Griess reaction, measure of iNOS activity); type: cell-based; conditions: for inhibition at 50 µM / Inhibition of NO production at 50 µM (%): 50 µM compound; for inhibition at 50 µM: read-out: Inhibition of NO production at 50 µM (%); for IC50: means ± SE, n = 3;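 on all read-outs here: cells pretreated with compound for 2 h, then stimulated 24 h with LPS at 500 ng/ml, supernatant nitrite quantified by absorbance at 550 nm against a nitrite standard curve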
[2] = Mus musculus, LPS-stimulated RAW264.7 cells
[3] = Mus musculus, RAW264.7, LPS-stimulated RAW264.7 cells
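Wherever Cytotoxicity in RAW 264.7 cells (MTT) is given: viability gauged by mitochondrial reductase turning MTT into formazan, optical density read at 570 nm, with untreated control cells set as 100% viability.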

Structure (SMILES)	inhibition at 100 µM (sEH)	IC50 (sEH)	inhibition at 50 µM [1, 2]	Cytotoxicity in RAW 264.7 cells (MTT) (RAW 264.7 cells)	Inhibition of NO production at 50 µM (%) ([1]; LPS-stimulated RAW264.7 cells)	IC50 [1, 3]	IC50 ([1]; LPS-stimulated RAW264.7 cells)
O=C(/C=C/c1ccc(O)c(O)c1)O[C@@H]1C[C@@](O)(C(=O)O)C[C@@H](O)[C@@H]1O [Compound 1]	74.3 ± 3.4%	41.9 ± 1.2 µM	5.7%	did not exhibit significant cytotoxicity			
O=C(/C=C/c1ccc(O)cc1)O[C@@H]1C[C@@](O)(C(=O)O)C[C@@H](O)[C@@H]1O [Compound 2]	4.4 ± 3.2%		19.7%	did not exhibit significant cytotoxicity			
COc1cc(/C=C/C(=O)O[C@@H]2C[C@@](O)(C(=O)O)C[C@@H](O)[C@@H]2O)ccc1O [Compound 3]	67.1 ± 3.4%	60.7 ± 1.9 µM	26.1%	did not exhibit significant cytotoxicity			
COC(=O)[C@@]1(O)C[C@@H](O)[C@H](O)[C@H](OC(=O)/C=C/c2ccc(O)c(O)c2)C1 [Compound 4]	68.3 ± 3.4%	30.4 ± 0.8 µM			N.I		
CCCCOC(=O)[C@@]1(O)C[C@@H](O)[C@H](O)[C@H](OC(=O)/C=C/c2ccc(O)c(O)c2)C1 [Compound 5]	77.7 ± 2.6%	33.1 ± 0.3 µM	53%	did not exhibit significant cytotoxicity		45.3 ± 1.4 µM	
COC(=O)[C@]1(O)C[C@@H](O)[C@@H](O)[C@H](OC(=O)/C=C/c2ccc(O)c(O)c2)C1 [Compound 6]	111 ± 1.9%	14.7 ± 0.4 µM	1.8%				
O=C(C=Cc1ccc(O)c(O)c1)OC1C(O)CC(O)(C(=O)O)CC1O (stereo not shown) [Compound 7]	69.2 ± 0.9%	50.8 ± 1.5 µM	10.7%	did not exhibit significant cytotoxicity			
O=C(/C=C\c1ccc(O)cc1)O[C@@H]1C[C@@](O)(C(=O)O)C[C@@H](O)[C@@H]1O [Compound 9]	32.3 ± 2.7%			did not exhibit significant cytotoxicity	N.I		
O=C1C[C@@H](c2ccc(O)cc2)Oc2cc(O)ccc21 [Compound 11]	34.5 ± 2.5%		10.8%				
O=C1c2c(O)cc(O)cc2O[C@H](c2ccc(O)cc2)[C@H]1O[C@@H]1O[C@H](CO)[C@@H](O)[C@H](O)[C@H]1O [Compound 13]	22.7 ± 3.9%			did not exhibit significant cytotoxicity	N.I		
O=c1c(O[C@@H]2O[C@H](CO)[C@@H](O)[C@H](O)[C@H]2O)c(-c2ccc(O)cc2)oc2cc(O)cc(O)c12 [Compound 14]	78 ± 1%	21.3 ± 0.3 µM	9%	did not exhibit significant cytotoxicity			
C[C@@H]1O[C@@H](OC[C@H]2O[C@@H](Oc3c(-c4ccc(O)cc4)oc4cc(O)cc(O)c4c3=O)[C@H](O)[C@@H](O)[C@H]2O)[C@H](O)[C@H](O)[C@H]1O [Compound 15]	60.2 ± 0.5%	18.3 ± 0.2 µM	3%	did not exhibit significant cytotoxicity			
COc1cc(C(=O)O)cc(OC)c1O [Compound 23]	10.7 ± 3%		14.1%				
COc1cc(C(=O)O)ccc1O [Compound 26]	21.3 ± 0.2%		11.4%				
O=C(O)/C=C/c1ccc(O)cc1 [Compound 29]	39.7 ± 4.4%		13.4%				
COc1cc(/C=C/C(=O)O)ccc1O [Compound 31]	43 ± 1.1%		10.6%				
C[C@@H]1C[C@H]2[C@@H]3CCC4=CC(=O)C=C[C@]4(C)[C@@]3(F)[C@@H](O)C[C@]2(C)[C@@]1(O)C(=O)CO [Dexamethasone, reference compound]						10.5 ± 0.13 µM	10.5 ± 0.1 µM
